Patent publication US9096532B2, “Pyrazole inhibitors of COX-2 and sEH” (The Regents of the University of California, priority 2010, dated 2015)

Test system: HepG2 cells
Experiment: HepG2 cell viability analysis (MTT)
Format: cell-based
Settings: Homo sapiens, HepG2; MTT after 24 hours of incubation
Procedure: Cells were plated at 10,000 cell per well in 96-well plates and allowed to attach overnight under the growth conditions described above. […] These compounds were dissolved in 100% DMSO and diluted with EMEM to the desired concentration of 0.1 μM, 1.0 μM, 10 μM, 25 μM, and 50 μM, with a final DMSO concentration of 0.1% for all cell-based in vitro studies. All studies included DMSO as a solvent control. Cell viability was determined using the MTT Cell Viability Assay Kit from ATCC according to manufacturer's instructions. The 96-well plates were measure at 570 nm using SpectroMax 190 plate reader (Molecular Devices, Sunnyvale, Calif.). […] Each concentration was performed in triplicate per 96-well plate and EC50 data are presented as the mean±standard deviation from at least 3 separate experiments performed on separate days.

Structure (SMILES): Cc1ccc(-c2cc(C(F)(F)F)nn2-c2ccc(S(N)(=O)=O)cc2)cc1 [Celecoxib, celecoxib, reference compound]
- EC50: 20 ± 4 µM
